From US4404138A, “3-[2-(Azabicyclo) ethyl]-1,2,3,4-tetrahydro-5H-[1]benzopyrano[3,4-c]pyridin-5-ones” (Warner-Lambert Company, priority 1982, dated 1983)
Like-named read-outs stand apart in the source and are kept apart here.

How the values were obtained:
[1] = system: pilocarpine-induced bronchospasm and salivary flow in mongrel dogs; experiment: Pilocarpine-induced bronchospasm and salivation in anesthetized mongrel dogs; format: in vivo; conditions: for ED50: Canis lupus familiaris, anesthetized dogs, pilocarpine nitrate 0.2 mg/kg/hr infusion, cumulative IV doses; for Pulmonary Selectivity*: value >1 indicates the compound is more potent as a bronchodilator than as an antisecretory agent
Method: In an additional testing procedure, mongrel dogs of either sex, 10.6 to 15.3 kg, are anesthetized with sodium pentobarbital, 30 mg/kg IV and then prepared for the monitoring of pulmonary mechanics. A Buxco pulmonary mechanics computer is used to calculate pulmonary resistance, dynamic compliance, and tidal volume from transpulmonary pressure and flow data. Respiratory rate, heart rate and mean arterial blood pressure are also monitored. The femoral vein is cannulated for the delivery of drugs.
Pilocarpine nitrate (0.2 mg/kg/hr) is than infused to induce a bronchospasm and salivary flow. […] Salivary output is collected from a catheterized Wharton's duct at five minute intervals. After salivation has stabilized, three control collections are taken at five minute intervals followed by a series of cumulative IV doses of test compound (1, 3, 10, 30, 100, 300, 1000, 3000, and 10,000 μg/kg) that are injected every five minutes for 45 minutes.
The percent inhibition of both the bronchospasm and salivation are calculated for each dose with a return to prepilocarpine resistance levels or cessation of salivation equal to a 100% inhibition.

[2] = system: Conscious guinea pigs exposed to an aerosol of methacholine; experiment: Methacholine aerosol collapse time in conscious guinea pigs (anticholinergic test); format: in vivo; conditions: 25 mg/kg intraperitoneally, 10 minutes methacholine aerosol; for (Minutes Protection): collapse time, Control 1.9 to 2.0
Method: Conscious guinea pigs, six at a time, are put into a sealed chamber and exposed for 10 minutes to an aerosol of methacholine.

[3] = inhibition of bronchospasm, read-out: ID50 μg/kg Bronchospasm
[4] = inhibition of salivation, read-out: ID50 μg/kg Salivation

With `COc1ccc2c3c(c(=O)oc2c1)CN(CCN1CC2CCC(CC2)C1)CC3` [R1=H, R2=MeO, R3=H, X=drawing 14] the ED50 [1, 3] was 35 µg/kg, the ED50 [1, 4] was 104 µg/kg and the “Pulmonary Selectivity*” value [1] was 3.
With `COc1ccc2c3c(c(=O)oc2c1)CN(CCN1CC2CCC1CC2)CC3` [R1=H, R2=MeO, R3=H, X=drawing 16] the ED50 [1, 3] was 63 µg/kg, the ED50 [1, 4] was 102 µg/kg and the “Pulmonary Selectivity*” value [1] was 1.61.
For `COc1cc2oc(=O)c3c(c2cc1OC)CCN(CCN1CC2CCCC(C2)C1)C3` [R1=MeO, R2=MeO, R3=H, X=drawing 12, 3-[2-(3-Azabicyclo[3.3.1]non-3-yl)ethyl]-1,2,3,4-tetrahydro-8,9-dimethoxy-5H-[1]benzopyrano[3,4-c]pyridin-5-one], the “(Minutes Protection)” value [2] was 6.6 min.
In the case of `COc1cc2oc(=O)c3c(c2cc1OC)CCN(CCN1CC2CCC(CC2)C1)C3` [R1=MeO, R2=MeO, R3=H, X=drawing 15], the ED50 [1, 3] is reported as 113 µg/kg, the ED50 [1, 4] is reported as 530 µg/kg and the “Pulmonary Selectivity*” value [1] is reported as 4.7.
With `Cc1cc2oc(=O)c3c(c2cc1N)CCN(CCN1CC2CCC(CC2)C1)C3` [R1=NH2, R2=Me, R3=H, X=drawing 10, 9-Amino-3-[2-(3-azabicyclo[3.2.2]non-3-yl)ethyl]-1,2,3,4-tetrahydro-8-methyl-5H-[1]benzopyrano[3,4-c]pyridin-5-one] the “(Minutes Protection)” value [2] was 1.9 min.
With `CC(=O)Nc1cc2c3c(c(=O)oc2cc1C)CN(CCN1CC2CCC(CC2)C1)CC3` [R1=NHCOCH3, R2=Me, R3=H, X=drawing 10, N-{3-[2-(3-Azabicyclo[3.2.2]non-3-yl)ethyl]-1,2,3,4-tetrahydro-8-methyl-5-oxo-2H-[1]benzopyrano[3,4-c]pyridin-9-yl}-acetamide] the “(Minutes Protection), given in words” value ([2]; time not given) was “Active”.
For `Cc1cc2oc(=O)c3c(c2cc1NC(=O)c1ccccc1)CCN(CCN1CC2CCC(CC2)C1)C3` [R1=NHCOPh, R2=Me, R3=H, X=drawing 10, N-{3-[2-(3-Azabicyclo[3.2.2]non-3-yl)ethyl]-1,3,4,5-tetrahydro-8-methyl-5-oxo-2H-[1]benzopyrano[3,4-c]pyridin-9-yl}-benzamide], the “(Minutes Protection)” value [2] was 3.8 min.
In the case of `Cc1cc2oc(=O)c3c(c2cc1[N+](=O)[O-])CCN(CCN1CC2CCC(CC2)C1)C3` [R1=NO2, R2=Me, R3=H, X=drawing 10, 3-[2-(3-Azabicyclo[3.2.2]non-3-yl)ethyl]-1,2,3,4-tetrahydro-8-methyl-9-nitro-5H-[1]benzopyrano[3,4-c]pyridin-5-one], the “(Minutes Protection)” value [2] is reported as 1.9 min.
`Br.Br.O=c1oc2cc(O)c(O)cc2c2c1CN(CCN1CC3CCC(CC3)C1)CC2` [R1=OH, R2=OH, R3=H, X=drawing 10, 3-[2-(3-Azabicyclo[3.2.2]non-3-yl)ethyl]-1,2,3,4-tetrahydro-8,9-dihydroxy-5H-[1]benzopyrano[3,4-c]pyridin-5-one dihydrobromide] was tested, and the “(Minutes Protection)” value [2] was 2.1 min.
